# In ChEMBL document CHEMBL6182894, “Design, synthesis, and biological evaluation of quinolinyl-ureido-phenyl-hydrazide derivatives and quinolinyl-hydrazide derivatives as anticancer agents targeting Nur77-mediated ferroptosis” (Eur J Med Chem, 2025):
# Columns and labels:
# MCF7 [1] = assay: Antiproliferative activity against human MCF7 cells assessed as inhibition of cell growth at 50 uM by MTT assay relative to control; assay type: functional
# HCT-116 = assay: Antiproliferative activity against human HCT-116 cells assessed as inhibition of cell growth by MTT assay
# HepG2 = assay: Antiproliferative activity against human HepG2 cells assessed as inhibition of cell growth by MTT assay
# [2] = Cytotoxicity in HaCaT cells assessed as inhibition of cell growth by MTT assay; assay type: toxicity, cell-based; conditions: human
# [3] = Cytotoxicity in human MCF-10A cells assessed as inhibition of cell growth by MTT assay; assay type: toxicity, cell-based
# MCF7 [4] = assay: cells; conditions: Homo sapiens, MCF7, 24 h
# Description: Antiproliferative activity against human MCF7 cells assessed as inhibition of cell growth incubated for 24 hrs by MTT assay
# MDA-MB-231 = assay: cells; conditions: Homo sapiens, MDA-MB-231, 24 h
# Description: Antiproliferative activity against human MDA-MB-231 cells assessed as inhibition of cell growth incubated for 24 hrs by MTT assay
# T47D = assay: cells; conditions: Homo sapiens, 24 h
# Description: Antiproliferative activity against human T47D cells assessed as inhibition of cell growth incubated for 24 hrs by MTT assay
# [5] = target: Nuclear receptor subfamily 4immunitygroup A member 1 (Homo sapiens, UniProt P22736); assay: Binding affinity to Nur77 LB domain (unknown origin) assessed as dissociation constant up to 100 uM by fluorescence titration assay
# Chain of Nuclear receptor subfamily 4immunitygroup A member 1 (P22736 whole entry, the tested form may be a part): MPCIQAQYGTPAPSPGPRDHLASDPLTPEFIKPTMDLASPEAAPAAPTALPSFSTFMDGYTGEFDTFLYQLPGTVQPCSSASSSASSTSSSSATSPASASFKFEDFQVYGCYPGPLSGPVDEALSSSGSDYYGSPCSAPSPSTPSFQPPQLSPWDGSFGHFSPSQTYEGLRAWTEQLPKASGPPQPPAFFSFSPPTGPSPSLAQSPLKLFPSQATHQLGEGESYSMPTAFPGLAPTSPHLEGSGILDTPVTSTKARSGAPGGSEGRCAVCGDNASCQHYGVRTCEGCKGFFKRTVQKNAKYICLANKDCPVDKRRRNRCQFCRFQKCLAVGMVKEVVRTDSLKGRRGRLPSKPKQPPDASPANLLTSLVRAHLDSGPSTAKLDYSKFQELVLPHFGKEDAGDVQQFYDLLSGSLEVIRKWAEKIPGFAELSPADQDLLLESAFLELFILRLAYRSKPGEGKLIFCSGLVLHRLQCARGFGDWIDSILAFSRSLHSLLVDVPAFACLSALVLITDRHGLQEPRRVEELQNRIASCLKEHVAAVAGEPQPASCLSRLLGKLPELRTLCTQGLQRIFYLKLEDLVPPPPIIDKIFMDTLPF
IC50 (HCT-116),IC50 (HepG2),IC50 (MCF7 [4]),Structure (SMILES),inhibition at 50 µM (MCF7 [1]),IC50 [2],IC50 [3],further results
10.7 µM,15.6 µM,11.4 µM,O=C(Nc1ccc(C(=O)N/N=C/c2cccc(Cl)c2)cc1)Nc1cccc2ncccc12,76.2%,> 50 µM,> 50 µM,–
25.3 µM,28.1 µM,22.3 µM,Cc1ccc(/C=N/NC(=O)c2ccc3ncccc3c2)cc1,76.8%,39.6 µM,40.6 µM,–
22.9 µM,13.9 µM,17.4 µM,O=C(N/N=C/c1ccc(Cl)cc1)c1ccc2ncccc2c1,79%,> 50 µM,> 50 µM,–
2.19 µM,2.75 µM,6.83 µM,CCC/C=N/NC(=O)c1cccc2ncccc12,79.2%,45.7 µM,39.5 µM,–
–,–,7.68 µM,CC/C(=C(\c1ccccc1)c1ccc(OCCN(C)C)cc1)c1ccccc1 [TAMOXIFEN],–,–,–,IC50 (MDA-MB-231): 20.8 µM
–,–,–,Cc1cccc(/C=N/NC(=O)c2ccc(NC(=O)Nc3cccc4ncccc34)cc2)c1,68.6%,–,–,–
8.24 µM,9.25 µM,4.77 µM,O=C(Nc1ccc(C(=O)N/N=C/c2cc(Cl)ccc2Cl)cc1)Nc1ccc2ncccc2c1,75.7%,40.1 µM,> 50 µM,IC50 (T47D): 8.71 µM
–,–,–,COc1ccc(/C=N/NC(=O)c2ccc(NC(=O)Nc3ccc4ncccc4c3)cc2)cc1OC,1.26%,–,–,–
–,–,–,O=C(N/N=C/c1cccs1)c1ccc2ncccc2c1,64.9%,–,–,–
–,–,–,O=C(N/N=C/c1cccc(Cl)c1)c1cccc2ncccc12,56.9%,–,–,–
–,–,–,COc1cccc(/C=N/NC(=O)c2ccc(NC(=O)Nc3cccc4ncccc34)cc2)c1,59%,–,–,–
–,–,–,CCCCCCCC(=O)c1c(O)cc(O)cc1CC(=O)OCC [CYTOSPORONE B],–,–,–,Kd [5]: 15.3 µM
–,–,–,O=C(N/N=C/c1ccc([N+](=O)[O-])cc1)c1ccc2ncccc2c1,63.2%,–,–,–
–,–,–,Cc1cc(C)cc(/C=N/NC(=O)c2ccc(NC(=O)Nc3ccc4ncccc4c3)cc2)c1,19%,–,–,–

Structure (SMILES),IC50 (HCT-116),IC50 (HepG2),IC50 (MCF7 [4]),inhibition at 50 µM (MCF7 [1]),IC50 [2],IC50 [3],further results
CCOc1ccccc1-n1c(C(C)N2CCN(C(=O)COc3ccc(Cl)cc3)CC2)nc2ccccc2c1=O (centres undefined) [ERASTIN],> 30 µM,> 30 µM,20.2 µM,–,–,–,–
